The source of these data is publication PMC5462828 (Scientific Reports, 2017).

On the set-up of series [1]: method as in PMID 23764525. The following applies: cited from earlier work.
In series [2] the target is T1, RXFP1 (Homo sapiens, UniProt Q9HBX9).
T1 sequence (Q9HBX9 1-757): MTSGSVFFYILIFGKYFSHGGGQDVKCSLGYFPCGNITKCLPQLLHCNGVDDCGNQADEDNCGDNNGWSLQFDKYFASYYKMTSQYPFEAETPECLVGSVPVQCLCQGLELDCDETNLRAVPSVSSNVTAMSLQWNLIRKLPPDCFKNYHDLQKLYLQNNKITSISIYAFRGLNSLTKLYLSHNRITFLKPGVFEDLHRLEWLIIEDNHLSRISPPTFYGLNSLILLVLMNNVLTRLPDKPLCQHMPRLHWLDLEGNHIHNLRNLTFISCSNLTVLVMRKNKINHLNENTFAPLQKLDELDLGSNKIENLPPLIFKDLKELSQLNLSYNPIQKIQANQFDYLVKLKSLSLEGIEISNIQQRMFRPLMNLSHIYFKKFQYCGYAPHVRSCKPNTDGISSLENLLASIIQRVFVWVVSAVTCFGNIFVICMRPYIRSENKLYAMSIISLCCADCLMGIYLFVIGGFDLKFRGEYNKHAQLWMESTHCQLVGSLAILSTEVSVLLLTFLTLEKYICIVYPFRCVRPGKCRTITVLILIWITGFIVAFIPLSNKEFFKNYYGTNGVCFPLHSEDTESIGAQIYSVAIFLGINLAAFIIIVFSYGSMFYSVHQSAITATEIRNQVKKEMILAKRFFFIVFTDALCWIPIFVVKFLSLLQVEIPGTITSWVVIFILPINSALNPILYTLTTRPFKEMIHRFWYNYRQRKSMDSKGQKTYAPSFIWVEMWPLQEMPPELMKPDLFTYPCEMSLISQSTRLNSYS
Kind of series: ERK1/2 phosphorylation (Surefire) in HEK-RXFP1 cells. Conditions: ML290 10 μM, 10 min pretreatment. The format is cell-based. More on the design: expressed in transfected cells; host or cells: HEK293T / HEK293 cells stably expressing RXFP1 (HEK-RXFP1). The protocol: p-ERK1/2, p-p38MAPK and p-JNK1/2 was measured using the Surefire ERK, p38 and JNK kits (TGR BioSciences, Australia) as described previously, [16]. Briefly, HEK-RXFP1 cells were plated into 96-well plates (5 × 10^4 cells/well) and primary cells grown in 24-well plates (1 × 10^5 cells/well) overnight to achieve a confluent monolayer. Prior to stimulation, HEK293 cells were serum-starved with DMEM containing 0.5% (v/v) FBS and primary cells in M199 medium for 4–6 hours. […] Levels of p-ERK1/2, p-p38MAPK and p-JNK1/2/3 were detected as per manufacturer’s instructions (Perkin-Elmer, Australia).

Series [3] has as its system monkey RXFP1. The arrangement: method as in PMID 26866459. Conditions: cited from earlier work.

As for `CC(C)Oc1ccccc1C(=O)Nc1ccccc1C(=O)Nc1cccc(S(=O)(=O)C(F)(F)F)c1` [ML290, 2-Isopropoxy-N-(2-(3-(trifluoromethylsulfonyl)phenylcarbamoyl)phenyl) benzamide], the microsomal stability entry in series [1] is “high microsomal stability”. Besides, the “effect of pretreatment on maximum p-ERK1/2 response to relaxin” value in series [2] was “significantly increased”. Besides, the “agonist action at monkey RXFP1” value in series [3] is given as “activates”.
